# Measured values: patent publication US6410527B1, “Method of treating obsessive compulsive disorders, somatoform disorders, dissociative disorders, eating disorders, impulse control disorders, and autism” (Schering Corporation, priority 1998, dated 2002)
# Counter-ions that a name gives are not always drawn.
# How the values were obtained:
# [1] = test system: patient diagnosed with obsessive-compulsive disorder; test: Administration of SCH 39166 capsules to a patient with obsessive-compulsive disorder; assay type: in vivo, human; settings: capsules of Example 1 containing 5.0 mg SCH 39166, once a day, six months
# [2] = test system: patient diagnosed as having autism; test: Administration of SCH 39166 capsules to a patient with autism; assay type: in vivo, human; settings: capsules of Example 1 containing 25.0 mg SCH 39166, once a day, six months
compound,measurement,setting,value
"CN1CCc2cc(Cl)c(O)cc2[C@H]2c3ccccc3CC[C@@H]21 [SCH 39166, (−)-trans-6,7,7a, 8,9,13b-hexahydro-3-chloro-2-hydroxy-N-methyl-5-H-benzo[d]naphtho{2,1-b}azepine HCl]",observable symptoms of the disorder,[1],reducing or eliminating the observable symptoms of the disorder
same,observable symptoms of the disorder,[2],reducing or eliminating the observable symptoms of the disorder
